The results in this text go back to ChEMBL document CHEMBL4364269, “Identification of a novel orally bioavailable ERK5 inhibitor with selectivity over p38α and BRD4” (Eur J Med Chem, 2019).

Data set [1] in a line: Toxicity in CD1 mouse xenografted with human A2780 cells assessed as body weight at 50 mg/kg, ip administered bid for 10 days (reference value: 96%). In kind it is organism-based. Conditions: in vivo, 240 h.
The subject of data set [2] is A2780. The data set can be described thus: Antitumor activity against human A2780 cells xenografted in CD1 mouse assessed as reduction in tumor volume at 50 mg/kg, ip administered bid for 10 days started on day 7 post-tumor inoculation and measured three times per week by digital caliper analysis. It counts as functional.
Data set [3] has as its target Bromodomain-containing protein 4 (Homo sapiens, UniProt O60885). The data set can be described thus: Inhibition of BRD4 (unknown origin).
Data set [4] concerns the target Cytochrome P450 2D6 (Homo sapiens, UniProt P10635). Kind of data set: Inhibition of CYP2D6 (unknown origin). In kind it is ADME.
Data set [5] in a line: Oral bioavailability in CD1 mouse at 10 mg/kg measured upto 24 hrs by LCMS analysis. In kind it is ADME, organism-based. Conditions: in vivo.
Data set [6] in a line: Cmax in CD1 mouse at 10 mg/kg, iv measured upto 24 hrs by LCMS analysis. It counts as ADME, organism-based. Details: dose 10 mg/kg, route intravenous. Conditions: in vivo.
Data set [7] in a line: Half life in CD1 mouse at 10 mg/kg, iv measured upto 24 hrs by LCMS analysis. In kind it is ADME, organism-based. Conditions: in vivo.
Data set [8] can be described thus: Stability in human liver microsomes assessed as intrinsic clearance per mg protein. Conditions: read-out: CLH. In kind it is ADME, Microsome.
Data set [9] concerns the target Cytochrome P450 2C19 (Homo sapiens, UniProt P33261). Kind of data set: Inhibition of CYP2C19 (unknown origin). It counts as ADME.
Data set [10] concerns A2780. The data set can be described thus: Antitumor activity against human A2780 cells xenografted in CD1 mouse assessed as reduction in tumor volume at 100 mg/kg, po administered bid for 10 days started on day 7 post-tumor inoculation and measured three times per week by digital caliper analysis. It counts as functional.
A short description of data set [11]: Stability in mouse liver microsomes assessed as intrinsic clearance per mg protein. Conditions: read-out: CLH. It counts as ADME, Microsome.
Data set [12] is described as follows: Permeability across basolateral to apical side in human Caco2 cells. Conditions: Caco-2, read-out: permeability. In kind it is ADME, cell-based.
Data set [13] can be described thus: Cmax in CD1 mouse at 10 mg/kg, po measured upto 24 hrs by LCMS analysis. It counts as ADME, organism-based. Details: dose 10 mg/kg, route oral. Conditions: in vivo.
A short description of data set [14]: Solubility of compound by turbidometry. In kind it is physicochemical.
For data set [15], the target named is Mitogen-activated protein kinase 14 (Homo sapiens, UniProt Q16539). The data set can be described thus: Inhibition of recombinant N-terminal GST-tagged full length human p38alpha expressed in Escherichia coli cells assessed as substrate phosphorylation using Ulight-MBP peptide as substrate incubated for 1 hr by LANCE assay.
Chain of Mitogen-activated protein kinase 14 (Q16539 whole entry): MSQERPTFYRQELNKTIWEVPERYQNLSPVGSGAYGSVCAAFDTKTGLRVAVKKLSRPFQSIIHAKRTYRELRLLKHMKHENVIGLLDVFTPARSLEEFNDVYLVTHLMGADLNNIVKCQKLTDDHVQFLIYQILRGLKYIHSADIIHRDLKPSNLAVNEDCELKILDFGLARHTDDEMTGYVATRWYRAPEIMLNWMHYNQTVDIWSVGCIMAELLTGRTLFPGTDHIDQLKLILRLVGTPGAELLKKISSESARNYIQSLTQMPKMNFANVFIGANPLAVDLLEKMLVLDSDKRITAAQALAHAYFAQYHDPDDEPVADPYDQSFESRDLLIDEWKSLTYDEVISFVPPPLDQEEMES
Data set [16] concerns the target Cytochrome P450 3A4 (Homo sapiens, UniProt P08684). Kind of data set: Inhibition of CYP3A4 (unknown origin). It counts as ADME.
Data set [17] is described as follows: Toxicity in CD1 mouse xenografted with human A2780 cells assessed as body weight at 100 mg/kg, po administered bid for 10 days (reference value: 96%). Conditions: in vivo, 240 h. It counts as organism-based.
Data set [18] can be described thus: AUC in CD1 mouse at 10 mg/kg, iv measured upto 24 hrs by LCMS analysis. It counts as ADME, organism-based. Also on record: time < 24 hr, dose 10 mg/kg, route intravenous. Conditions: in vivo.
For data set [19], the target named is Cytochrome P450 2C9 (Homo sapiens, UniProt P11712). Kind of data set: Inhibition of CYP2C9 (unknown origin). It counts as ADME.
Chain of Cytochrome P450 2C9 (P11712 whole entry): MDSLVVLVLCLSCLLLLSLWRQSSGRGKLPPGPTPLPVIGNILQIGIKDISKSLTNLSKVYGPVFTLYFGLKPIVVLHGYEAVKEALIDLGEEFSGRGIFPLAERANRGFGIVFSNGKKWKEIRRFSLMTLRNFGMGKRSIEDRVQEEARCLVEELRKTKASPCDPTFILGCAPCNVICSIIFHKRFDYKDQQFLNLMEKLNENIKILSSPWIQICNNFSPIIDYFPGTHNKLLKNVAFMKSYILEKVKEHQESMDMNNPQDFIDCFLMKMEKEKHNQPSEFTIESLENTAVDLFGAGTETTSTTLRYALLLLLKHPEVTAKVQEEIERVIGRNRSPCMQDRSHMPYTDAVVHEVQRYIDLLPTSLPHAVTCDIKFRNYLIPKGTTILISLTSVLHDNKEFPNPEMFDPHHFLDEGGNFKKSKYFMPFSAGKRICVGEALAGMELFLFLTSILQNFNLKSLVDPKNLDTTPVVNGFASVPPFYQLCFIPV
Data set [20] is described as follows: Tmax in CD1 mouse at 10 mg/kg, po measured upto 24 hrs by LCMS analysis. In kind it is ADME, organism-based. Conditions: in vivo.
Data set [21] can be described thus: Clearance in CD1 mouse at 10 mg/kg, iv measured upto 24 hrs by LCMS analysis. It counts as ADME, organism-based. Conditions: in vivo.
Data set [22] relates to PC-3. Kind of data set: Growth inhibition of human PC3 cells. It counts as functional.
Data set [23] is described as follows: AUC in CD1 mouse at 10 mg/kg, po measured upto 24 hrs by LCMS analysis. Also on record: dose 10 mg/kg, time < 24 hr, route oral. Conditions: in vivo. In kind it is ADME, organism-based.
Data set [24] can be described thus: Fraction unbound in plasma (unknown origin). In kind it is ADME, cell-free.
The nature of data set [25]: Volume of distribution in CD1 mouse at 10 mg/kg, iv measured upto 24 hrs by LCMS analysis. It counts as ADME, organism-based. Conditions: in vivo.
Data set [26] addresses T1, Mitogen-activated protein kinase 7 (Homo sapiens, UniProt Q13164). The data set can be described thus: Inhibition of ERK5 (unknown origin) using R7129 as substrate incubated for 2 hrs by IMAP fluorescence polarization analysis.
Data set [27] has as its target T1, Mitogen-activated protein kinase 7. The data set can be described thus: Inhibition of HA-tagged ERK5 (unknown origin) coexpressed with mutationally activated EGFP-MEK5D and Gal4-MEF2D in HEK293 cells assessed as reduction in MEF2 transcription by measuring luciferase signal after 20 hrs by luciferase reporter gene assay. It counts as cell-based.
For data set [28] the target is unchanged. Kind of data set: Inhibition of recombinant N-terminal His-tagged human ERK5 (2 to 409 residues) co-expressed with GST-tagged human truncated MEK5DD lacking N-terminal 11 residues (13 to 448 residues) in Sf9 insect cells assessed as substrate peptide phosphorylation using (LVEPLTPSGEAPNQ(K-5FAM)-COOH as substrate incubated for 2 hrs by IMAP fluorescence polarisation assay.

A value given as a limit tells only on which side of the number the result lay.

T1 sequence (Q13164 whole entry, the tested form may be a part): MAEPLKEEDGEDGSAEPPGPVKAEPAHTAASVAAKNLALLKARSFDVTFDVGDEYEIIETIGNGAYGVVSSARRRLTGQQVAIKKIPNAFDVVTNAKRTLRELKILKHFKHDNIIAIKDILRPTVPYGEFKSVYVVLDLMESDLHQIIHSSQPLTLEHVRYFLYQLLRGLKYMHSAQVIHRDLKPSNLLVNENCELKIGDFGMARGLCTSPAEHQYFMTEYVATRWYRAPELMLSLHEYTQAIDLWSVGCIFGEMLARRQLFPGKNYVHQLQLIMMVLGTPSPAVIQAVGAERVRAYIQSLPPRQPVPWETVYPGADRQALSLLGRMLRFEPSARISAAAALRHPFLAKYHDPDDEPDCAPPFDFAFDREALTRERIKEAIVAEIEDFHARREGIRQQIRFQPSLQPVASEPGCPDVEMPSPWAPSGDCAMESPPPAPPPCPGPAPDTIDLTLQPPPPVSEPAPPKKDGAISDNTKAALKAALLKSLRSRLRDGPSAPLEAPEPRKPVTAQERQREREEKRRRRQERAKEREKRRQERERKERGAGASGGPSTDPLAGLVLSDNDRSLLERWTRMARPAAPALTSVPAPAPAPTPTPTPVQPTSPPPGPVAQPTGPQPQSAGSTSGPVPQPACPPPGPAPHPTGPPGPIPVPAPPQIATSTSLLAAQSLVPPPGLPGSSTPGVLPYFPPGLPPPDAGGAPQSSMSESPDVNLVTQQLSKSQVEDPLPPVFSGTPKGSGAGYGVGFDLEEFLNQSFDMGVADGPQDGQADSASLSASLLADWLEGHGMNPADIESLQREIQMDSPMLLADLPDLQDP
Chain of Cytochrome P450 3A4 (P08684 whole entry): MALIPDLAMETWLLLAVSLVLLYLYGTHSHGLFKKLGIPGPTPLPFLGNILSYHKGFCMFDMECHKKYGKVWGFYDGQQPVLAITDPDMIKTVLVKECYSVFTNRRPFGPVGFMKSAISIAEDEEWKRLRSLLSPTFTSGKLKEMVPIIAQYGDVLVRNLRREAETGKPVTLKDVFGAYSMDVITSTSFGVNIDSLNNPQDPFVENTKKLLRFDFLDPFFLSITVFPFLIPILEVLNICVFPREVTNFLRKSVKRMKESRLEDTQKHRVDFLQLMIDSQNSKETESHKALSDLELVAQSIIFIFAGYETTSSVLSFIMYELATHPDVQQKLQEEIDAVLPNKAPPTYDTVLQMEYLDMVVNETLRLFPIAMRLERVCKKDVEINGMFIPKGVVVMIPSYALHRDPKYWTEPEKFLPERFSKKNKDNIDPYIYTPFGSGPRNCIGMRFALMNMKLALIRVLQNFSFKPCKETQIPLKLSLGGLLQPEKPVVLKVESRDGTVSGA
Chain of Cytochrome P450 2D6 (P10635 whole entry): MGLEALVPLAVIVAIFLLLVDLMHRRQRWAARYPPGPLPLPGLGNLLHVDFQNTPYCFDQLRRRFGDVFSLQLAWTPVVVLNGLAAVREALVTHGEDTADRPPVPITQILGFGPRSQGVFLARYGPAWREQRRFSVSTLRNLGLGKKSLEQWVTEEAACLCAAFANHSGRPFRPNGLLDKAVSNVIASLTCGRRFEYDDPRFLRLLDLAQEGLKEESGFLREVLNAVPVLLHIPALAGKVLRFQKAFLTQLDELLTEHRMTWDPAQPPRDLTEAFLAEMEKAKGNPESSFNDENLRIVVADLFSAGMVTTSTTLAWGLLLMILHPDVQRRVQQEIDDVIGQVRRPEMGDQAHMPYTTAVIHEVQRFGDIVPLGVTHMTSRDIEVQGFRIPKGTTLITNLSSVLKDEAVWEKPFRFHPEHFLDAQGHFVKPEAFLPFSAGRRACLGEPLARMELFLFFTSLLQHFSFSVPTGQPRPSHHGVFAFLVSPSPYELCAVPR
Chain of Cytochrome P450 2C19 (P33261 whole entry): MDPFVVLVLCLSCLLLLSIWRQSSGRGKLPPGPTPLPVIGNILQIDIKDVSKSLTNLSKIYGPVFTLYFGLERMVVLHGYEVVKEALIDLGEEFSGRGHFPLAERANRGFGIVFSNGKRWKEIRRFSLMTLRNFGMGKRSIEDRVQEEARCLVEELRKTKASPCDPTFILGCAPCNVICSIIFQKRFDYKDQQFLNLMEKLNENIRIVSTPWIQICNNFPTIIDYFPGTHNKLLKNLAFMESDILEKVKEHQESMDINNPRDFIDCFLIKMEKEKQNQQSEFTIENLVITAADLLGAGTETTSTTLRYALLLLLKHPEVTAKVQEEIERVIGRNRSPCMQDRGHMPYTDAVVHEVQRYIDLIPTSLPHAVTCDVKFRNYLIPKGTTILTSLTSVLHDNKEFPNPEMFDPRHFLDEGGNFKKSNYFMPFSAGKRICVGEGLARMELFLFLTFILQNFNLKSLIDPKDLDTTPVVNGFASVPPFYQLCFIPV

For `CCOc1cc(N2CCC(O)CC2)ccc1Nc1ncc2c(n1)N(C)c1ccccc1C(=O)N2C`, the Activity in data set [1] is recorded as 98%. Besides, the inhibition in vivo at 50 mg/kg in data set [2] amounted to 62%. In addition, in [3], the Kd was 1.6 µM.

As to `O=C(Nc1cccnc1)c1cc(C(=O)c2c(F)cccc2Br)c[nH]1`, the IC50 in [4] was > 5 µM; in data set [9] it was > 5 µM; in [15], > 120 µM; in data set [16] it was > 5 µM; in data set [19], > 5 µM. In addition, the bioavailability in data set [5] was found to be 68%. In addition, the Cmax in [6] was determined as 25 µM; in data set [13], 6 µM. Besides, the half-life in [7] worked out at 38 min. The microsomal CLint was < 5 µL/min/mg in [8] and 26 µL/min/mg in data set [11]. Moreover, the inhibition in vivo at 100 mg/kg in data set [10] amounted to 57%. Moreover, in [12], the Papp B→A is > 10 ×10⁻⁶ cm/s. The solubility (kinetic) in [14] is > 100 µM. The Activity in data set [17] was determined as 99%. For the same compound, the area under the curve (AUC) at 24 h in data set [18] is 6200 ng·h/mL; in [23] it was 4230 ng·h/mL. The Tmax in data set [20] is 15 min. Moreover, in data set [21], the clearance was determined as 27 mL/min/kg. Further, it took 44 µM to inhibit growth in data set [22] by half (GI50). In data set [24], the free fraction (fraction unbound) amounted to 0.06. Also, the Vd in data set [25] was 1.2 L/kg.

The compound `O=C(NCc1ccncc1)c1cc(C(=O)c2cccc(Cl)c2Cl)c[nH]1` had an IC50 in data set [26] of 2 µM.

As to `O=C(Nc1ccncc1)c1cc(C(=O)c2c(F)cccc2F)c[nH]1`, the half-maximal inhibitory concentration (IC50) in data set [15] was found to be 100 µM; in [27], 8 µM.

For the compound `O=C(NCc1ccncc1)c1cc(C(=O)c2c(F)cccc2F)c[nH]1`, the IC50 in [28] is 30 µM; in data set [15], 0.58 µM.

Consider `O=C(NCc1ccncc1)c1cc(C(=O)c2c(Cl)cccc2Cl)c[nH]1`, for which the values for the IC50 in [28] and in data set [15] were 4.4 µM and 12.3 µM, respectively.

As for `O=C(Nc1cccnc1)c1cc(C(=O)c2c(F)cccc2Cl)c[nH]1`, the 50% inhibitory concentration (IC50) in data set [15] came out at 93.2 µM.

Take `O=C(NCc1ccncc1)c1cc(C(=O)c2cccc(F)c2F)c[nH]1`: the figures for the half-maximal inhibitory concentration (IC50) in [28] and in data set [15] were 7 µM and 2.4 µM, respectively.

In the case of `O=C(NCc1ccncc1)c1cc(C(=O)c2ccccc2Cl)c[nH]1`, the IC50 in [28] was found to be 15 µM.

Consider `O=C(Nc1cccnc1)c1cc(C(=O)c2c(F)cccc2F)c[nH]1`, for which the figures for the half-inhibitory concentration (IC50) in data set [28] and in [15] were 1.1 µM and 35 µM, respectively.

Turning to `O=C(c1ccc(Cl)cc1)c1c[nH]c(C(=O)NCc2ccncc2)c1`, the IC50 in data set [28] is > 120 µM.

Take `O=C(NCc1ccncc1)c1cc(C(=O)c2ccccc2F)c[nH]1`: the half-inhibitory concentration (IC50) turned out to be 5.9 µM in data set [28] and 0.36 µM in data set [15].

`O=C(Nc1ccncc1)c1cc(C(=O)c2c(F)cccc2Br)c[nH]1`: the IC50 is 0.7 µM in data set [28], > 120 µM in data set [15] and 4 µM in data set [27].

In the case of `O=C(Nc1ccncc1)c1cc(C(=O)c2c(F)cccc2Cl)c[nH]1`, the half-inhibitory concentration (IC50) in data set [15] was > 120 µM; in data set [27], 2.3 µM.

On to `O=C(c1ccc(F)cc1)c1c[nH]c(C(=O)NCc2ccncc2)c1`, for which, in [28], the half-inhibitory concentration (IC50) is > 120 µM.

Regarding `O=C(c1ccccc1)c1c[nH]c(C(=O)NCc2ccncc2)c1`, the half-inhibitory concentration (IC50) in data set [28] turned out to be 40 µM.

In the case of `O=C(c1cccc(Cl)c1)c1c[nH]c(C(=O)NCc2ccncc2)c1`, the IC50 in data set [28] was determined as 6.3 µM; in data set [15], 6.5 µM.

With `O=C(c1cccc(F)c1)c1c[nH]c(C(=O)NCc2ccncc2)c1`, the IC50 in data set [28] is > 120 µM.
